Data as given in PMC6789782, “Safety Pharmacological Evaluation of the Coffee Component, Caffeoylquinic Acid, and Its Metabolites, Using Ex Vivo and In Vitro Profiling Assays” (Pharmaceuticals, 2019).

Key:
[1] = system: Calcium Channel L-Type, Dihydropyridine; assay: In vitro profiling, binding assay; design: species or system rat; settings: 30 µM
Method: (§1) Binding and functional assays of CGAs with the proteins known to be pharmacological targets related to the CVS, CNS, and GI functions were conducted. […] In the binding assay, we measured the radiation activity of the solution containing filtered proteins that bound to the tested compound or high-affinity ligand, while in the functional assays, we measured the reaction product. The ability of the test compound to interact with the tested targets was measured as the inhibition of ligand binding to the target or reaction product production (% inhibition).

[2] = system: Calcium Channel L-Type, Phenylalkylamine; assay: In vitro profiling, binding assay; design: species or system rat; settings: 30 µM
Method: as §1

[3] = system: Sodium Channel; assay: In vitro profiling, binding assay; design: species or system rat; settings: 30 µM
Method: as §1

[4] = system: Glutamate, NMDA; assay: In vitro profiling, binding assay; design: species or system rat; settings: 30 µM
Method: as §1

[5] = system: GABAA; assay: In vitro profiling, binding assay; design: species or system rat; settings: 30 µM
Method: as §1

[6] = system: Calcium Channel L-Type, Benzothiazepine; assay: In vitro profiling, binding assay; design: species or system rat; settings: 30 µM
Method: as §1

[7] = system: ileum isolated from guinea pig; assay: In vitro Magnus assay, ileum; settings: 100 µM; ± SEM; p < 0.05
Method: (§2) Guinea pigs (Japan SLC, Inc., Shizuoka, Japan) were anesthetized with pentobarbital sodium (30–50 mg/kg, i.p.) and the stomach fundi, ileums, and colons were dissected after being exsanguinated. Tissues were immediately placed in Tyrode’s solution containing NaCl 136.9 mM, KCl 2.7 mM, MgCl2.6H2O 1.2 mM, CaCl2.2H2O 2.0 mM, NaHCO3 11.9 mM, and D(+)-glucose 5.6 mM, and flushed for luminal content removal. Segments of approximately 2 cm were cut from each tissue and placed in an organ bath containing Tyrode’s solution aerated with O2:CO2 (95:5) at 32 °C. The tissue segments were connected to an isometric transducer (load, 1.0 g) to record the contractions (Nihon Kohden Corporation, Tokyo, Japan).
(§3) Maximum recording period for one condition was 20 min, and the test solution was exchanged when no effect was detected within 3 min. […] The concentration of acetylcholine was set based on preliminary experiments.

[8] = system: rat hippocampal slices; assay: Electrophysiological assay of hippocampal slices, population spike (PS) recording
Method: All animals were housed and used in accordance with the French and European legislations for animal care. Rats (Janvier Labs, Le Genest-Saint-Isle, France) were euthanized by fast decapitation, without prior anesthesia. The brain was quickly removed and soaked in ice-cold oxygenated buffer containing KCl 2 mM, NaH2PO4 1.2 mM, MgCl2 7 mM, CaCl2 0.5 mM, NaHCO3 26 mM, glucose 11 mM, and sucrose 250 mM. […] During the experiments, slices were perfused with oxygenated artificial cerebrospinal fluid at 37 °C at a rate of 3 mL/min. The tested slice numbers were > 2 for 100 µM, > 4 for 10 µM, and > 6 for 1 µM (follow-up study). All experiments were carried out with 3-dimensional multielectrode array (Qwane Biosciences S.A., Lausanne, Switzerland) and data were recorded with a commercially available multielectrode array set-up from MultiChannel Systems (MCS GmbH, Reutlingen, Germany).
A hippocampal slice was placed on the multielectrode array (100 μm distant electrodes). One electrode was chosen to stimulate schaffer collaterals (SC) at the CA1 border. The stimulus in a monopolar biphasic current pulse (−300 μA for 60 μs followed by +300 μA for 60 μs) was applied at 30-s intervals. An Input/Output (I/O) curve was derived before each experiment to determine the stimulation intensity. Basal stimulation intensity was then set to 100 μA higher than the minimal intensity necessary to induce PS in the pyramidal cell layer.
Then, 1 μM bicuculline, the antagonist of GABAA, was applied in the continuous presence of the compound for an additional 40-min. Control bicuculline slices were recorded in parallel and after 50 min of control recording, 1 μM bicuculline was applied for a 40-min period.
Normalized PS AUC was averaged by slices for each experiment carried out in the same conditions. PS AUC (± SEM) is expressed as a function of time. The number of PS oscillations induced at the end of the bicuculline-exposure period was determined for each electrode and averaged by slices. The results are presented as mean of the last 2 min of application. Statistical significance was measured using two-way ANOVA analysis with Sidak’s multiple comparisons test, except for the 100 µM concentration because of its small slice number.

[9] = system: rats; settings: two years; cited from earlier work
[10] = system: mice; settings: 96 weeks; cited from earlier work
[11] = system: fundus isolated from guinea pig; assay: In vitro Magnus assay, stomach fundus; settings: 100 µM; ± SEM; p < 0.01
Method: as §2, §3

[12] = system: GI transit and gastric emptying; settings: rats; dose-dependent manner; cited from earlier work

Row | Structure (SMILES) | % Inhibition [1] [%] | % Inhibition [2] [%] | % Inhibition [3] [%] | % Inhibition [4] [%] | % Inhibition [5] [%] | % Inhibition [6] [%] | Tension in the ileum [7] [g] | Additional spike number ([8]; 10 μM compound, co-exposure with 1 μM bicuculline) | Safety pharmacological toxicity on chronic exposure [9] | Safety pharmacological toxicity on chronic exposure [10] | Additional spike number ([8]; follow-up test, 1 µM alone, single application period) | Tension in the fundus [11] [g] | Effect on GI transit and gastric emptying [12]
1 | O=C(/C=C/c1ccc(O)c(O)c1)O[C@H]1C[C@@](O)(C(=O)O)C[C@H](O)[C@@H]1O [5-CQA, 5-O-caffeoylquinic acid] | 1 | 14 | 19 | 9 | 8 | −3 | 0.293 ± 0.068 |  |  |  |  |  | 
2 | COc1cc(/C=C/C(=O)O[C@H]2C[C@@](O)(C(=O)O)C[C@H](O)[C@@H]2O)ccc1O [5-FQA, 5-O-feruloylquinic acid] | 6 | 19 | 10 | 10 | 15 | 6 |  | in the same range as the bicuculline control slices |  |  |  |  | 
3 | O=C(O)/C=C/c1ccc(O)c(O)c1 [CA, caffeic acid] | 7 | 21 | 1 | 5 | 18 | −3 |  |  | no safety pharmacological toxicity | no safety pharmacological toxicity |  |  | 
4 | COc1cc(/C=C/C(=O)O)ccc1O [FA, ferulic acid] | 1 | 26 | 5 | 16 | 1 | 6 |  |  |  |  | did not trigger multiple spikes | 0.089 ± 0.005 | significantly accelerates
